{
  "source": "patent US20230372318A1",
  "about": "“METHODS FOR TREATING A SUBJECT HAVING MULTIPLE SYSTEM ATROPHY” (Theravance Biopharma R&D IP, LLC, priority 2022, published 2023)",
  "test_system": "norepinephrine (NE)",
  "experiment": "Plasma norepinephrine levels in Examples 6 and 7",
  "type": "in vivo, human",
  "settings": "for NE at End of Ex. 6/Start of Ex. 7: 4 weeks; for NE at End of Ex. 6/Start of Ex. 7 / NE on Day 29 of Ex. 7 Open Label: mean ± SD",
  "protocol": "For pharmacodynamic assessments, blood samples for pharmacodynamic markers (including [dihydroxyphenylglycol] DHPG and NE) were collected after the subject had been seated for approximately 30 minutes.\nBlood samples for pharmacodynamic markers ([dihydroxyphenylglycol] DHPG and NE) were collected at select study visits as defined in the Schedule of Study Procedures after the subject had been seated for 30 minutes. This was applicable to all consenting subjects.\nMoreover, it has also been discovered that the supine norepinephrine level in a subject having multiple system atrophy continues to increase for at least about 8 weeks when the subject is treated daily with ampreloxetine as shown in Table 8:\nBefore treatment with ampreloxetine, supine norepinephrine (NE) levels in subjects with MSA are less than about 350 pg/mL. After about 8 weeks of treatment, supine norepinephrine levels are greater than about 500 pg/mL. Supine norepinephrine levels were determined using standard procedures (see, e.g., Goldstein et al., Annals of Neurology, 1989:26(4) 558-563; and Palma et al., Neurology, 2018:91(16) e1539-e1544).",
  "data": [
    {"smiles": "Fc1cc(F)c(OCc2ccccc2C2CCNCC2)c(F)c1", "note": "[Ampreloxetine, 4-[2-(2,4,6-trifluorophenoxymethyl)phenyl]piperidine]", "values": [
      {"measurement": "NE at End of Ex. 6/Start of Ex. 7", "setting": "MSA, Example 6 ampreloxetine 10 mg QD group, start of Ex. 6: 280 ± 138", "value": "439 ± 250", "unit": "pg/mL"},
      {"measurement": "NE on Day 29 of Ex. 7 Open Label", "setting": "MSA, Example 6 ampreloxetine 10 mg QD group, about 8 weeks", "value": "539 ± 361", "unit": "pg/mL"},
      {"measurement": "NE on Day 29 of Ex. 7 Open Label", "setting": "MSA, Example 6 placebo group, received ampreloxetine in open-label part, start of Ex. 7: 291 ± 173", "value": "557 ± 298", "unit": "pg/mL"},
      {"measurement": "NE at End of Ex. 6/Start of Ex. 7", "setting": "PAF, Example 6 ampreloxetine 10 mg QD group, start of Ex. 6: 232 ± 110", "value": "357 ± 204", "unit": "pg/mL"},
      {"measurement": "NE on Day 29 of Ex. 7 Open Label", "setting": "PAF, Example 6 ampreloxetine 10 mg QD group, about 8 weeks", "value": "455 ± 238", "unit": "pg/mL"},
      {"measurement": "NE on Day 29 of Ex. 7 Open Label", "setting": "PAF, Example 6 placebo group, received ampreloxetine in open-label part, start of Ex. 7: 156 ± 82", "value": "267 ± 87", "unit": "pg/mL"},
      {"measurement": "NE at End of Ex. 6/Start of Ex. 7", "setting": "PD, Example 6 ampreloxetine 10 mg QD group, start of Ex. 6: 340 ± 237", "value": "407 ± 154", "unit": "pg/mL"},
      {"measurement": "NE on Day 29 of Ex. 7 Open Label", "setting": "PD, Example 6 ampreloxetine 10 mg QD group, about 8 weeks", "value": "552 ± 270", "unit": "pg/mL"},
      {"measurement": "NE on Day 29 of Ex. 7 Open Label", "setting": "PD, Example 6 placebo group, received ampreloxetine in open-label part, start of Ex. 7: 340 ± 266", "value": "443 ± 157", "unit": "pg/mL"},
      {"measurement": "Supine norepinephrine levels", "setting": "subjects with MSA, after about 8 weeks of treatment, before treatment less than about 350", "value": "greater than 500 pg/mL"}
    ]}
  ]
}
